Measurements as given in patent publication US7294625B2, “Pyrazole compounds” (Ube Industries, Ltd., priority 2002, dated 2007).

Key:
p38MAP kinase = target: T1, p38MAP kinase (Homo sapiens, UniProt Q16539); experiment: Enzyme inhibitory test against p38MAP kinase; type: biochemical; settings: active type p38MAP kinase, EGFR peptide substrate, [γ-32P]ATP, 30° C. 30 minutes; read-out: p38MAP kinase inhibition IC50 value
T1 construct: purchased Stratagene (p38MAP kinase); Upstate (SKK/MKK6) #206145 (p38MAP kinase); #14-225 or #14-303 (SKK/MKK6)
Description: Test Example 1 Enzyme Inhibitory Test Against p38MAP Kinase
(1) Preparatoin of Active Type p38MAP Kinase
An active type p38MAP kinase was prepared by incubation in a reaction solution (25 mM Tris-HCl pH 7.5, 5 mM β-glycerolphosphate, 2 mM DTT, 0.1 mM […], 10 mM MgCl2, 1 mM ATP) containing p38MAP kinase (Stratagene, #206145) and SKK/MKK6 (Upstate, #14-225 or #14-303) at 30° C. for 1 to 3 hours. This enzyme solution was diluted 5 to 10-fold with Stock Buffer (50 mM Tris-HCl pH 7.5, 0.1 mM EGTA, 0.2 mM Orthovanadate, 0.1% 2-ME, 10% glycerol, 0.03% Brij-35, 0.5 μM Microcystin), and preserved under freezing (−80° C.).
(2) Measurement of Inhibitory Activity of p38MAP Kinase
To 34 μL of a reaction solution (25 mM HEPES, pH 7.5, 10 mM Magnesium acetate) containing the active type p38MAP kinase prepared as mentioned above and a substrate (final concentration: […] EGFR; […]) was added 1 μL of DMSO, or a compound to be tested and dissolved in DMSO, then, the mixture was subjected to preincubation at 4° C. for 30 minutes. A reaction was started by adding 5 μL of an ATP solution (400 μM ATP, 1 μCi/μL [γ-^32P]ATP), and reacted at 30° C. for 30 minutes, and then, the reaction was stopped by adding 5 μL of 250 mM H3PO4. 25 μL of the reaction solution was placed on chromatography paper (Whatman, #P81), dried for about 2 minutes, and washed with 75 mM H3PO4. Water was removed by using 95% ethanol, it was transferred to a bial containing liquid scintillation cocktail (available from Nacalai Tesque), and radioactivity was measured. A concentration (IC50 value) of a compound to be tested necessary for inhibiting 50% of phosphrylation (^32P) of the substrate by the enzyme was calculated as compared to that non-treated by the compound to be tested by XL-fit (available from IDBS).

[1] = test system: LPS-induced TNF-α production in human PBMC; experiment: Inhibition of TNF-α production in human PBMC (in vitro); type: cell-based; settings: LPS 10 μg/ml, 18 hours, TNF-α ELISA, read-out: Inhibitory effect on LPS-induced TNF-α production in human PBMC IC50 value
Description: Test Example 2 Inhibition of TNF-α Production in Human PBMC (In Vitro)
Test was carried out according to the method of Welker et al. (Int. Arch. Allergy Immunol., 109, 110-115 (1996).
Heparin-added blood collected from healthy volunteer with consent was underlayed with a specific gravity-separating solution (Lymphoprep; available from Daiichi Pure Chemicals Co., Ltd.), subjected to centrifugation (800×g, 25 minutes), and a mononuclear cell layer was recovered. The obtained mononuclear cells (human PBMC) were washed twice with PBS (available from SIGMA), and resuspended in 1% FCS-containing RPMI aqueous solution (available from GIBCO) so that the cells became 5×10^6 cells/mL. The thus obtained cell suspension was diluted 10-fold with 1% FCS-containing RPMI medium, DMSO (or the compound to be tested) with a final concentration of 0.5% was added thereto, and cultured at 37° C. in 5% CO2 for 1 hour. After that, LPS (derived from E. Coli 055:5B, available from SIGMA) solution prepared by PBS was added so that the final concentration thereof being 10 μg/ml, and cultivation was carried out for further 18 hours. After the cultivation, culture medium was subjected to centrifugation (800×g, 10 minutes), and a concentration of TNF-α produced in the supernatant was measured by an enzyme-linked immunosorbent assay (ELISA) kit (TNF-α ELISA Kit, available from R&D). The concentration (IC50 value) of the test compound for inhibiting 50% of TNF-α production was calcualted by using XL-fit (available from IDBS).

[2] = test system: cytokine (IL-1β and TNF-α) induced IL-6 production; experiment: Inhibition of IL-6 production in rat (in vivo); settings: LEW rats, 3 mg/Kg oral, 1 hour before IL-1β/TNF-α i.v., serum IL-6 two hours later
Description: Test Example 3 Inhibition of IL-6 Production in Rat (In Vivo)
A cytokine mixed solution of IL-1β and TNF-α was intravenously injected to rats to induce production of IL-6. A mixed solution of IL-1β (available from R&D) (4 μg/ml) and TNF-α (available from R&D) (2 μg/ml) dissolved in PBS was administered to tail vein of LEW series rats (female, body weight: about 140 to 170 g, available from Charles River Japan, Inc.) fasted overnight with a ratio of 1 ml/kg of the body weight. Two hours later, blood was collected from the neck vein under ether anesthesia. The collected blood was centrifuged under the conditions of 20° C. and 10,000×g to separate serum. IL-6 concentration in the serum was measured by using an enzyme-linked immunosorbent assay (ELISA) kit (IL-6 ELISA KIT, available from R&D).
The test compound or the vehicle was orally administered with a dose of 10 ml/kg of the body weight before 1 hour of the injection of the cytokine mixed solution. The control group to which the vehicle was administered and the group of the compound to be tested were each 5 rats per group. An inhibitory ratio of the group of the compound to be tested based on control group was calculated.

T1 sequence (Q16539 whole entry): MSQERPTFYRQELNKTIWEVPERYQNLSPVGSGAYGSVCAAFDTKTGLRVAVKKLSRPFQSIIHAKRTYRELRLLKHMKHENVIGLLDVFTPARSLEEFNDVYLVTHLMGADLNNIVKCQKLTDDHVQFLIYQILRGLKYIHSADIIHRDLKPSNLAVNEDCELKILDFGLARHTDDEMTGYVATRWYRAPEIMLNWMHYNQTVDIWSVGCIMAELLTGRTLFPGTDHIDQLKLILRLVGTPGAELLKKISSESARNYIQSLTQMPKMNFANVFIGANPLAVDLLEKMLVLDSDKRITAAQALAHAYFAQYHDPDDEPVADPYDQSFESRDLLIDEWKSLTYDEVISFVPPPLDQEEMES

IC50 (p38MAP kinase) [nM]	SMILES	IC50 [1] [nM]	other results
0.2	O=c1ccc(-n2cc(-c3ccnc(NCC(F)(F)F)c3)c(-c3ccccc3F)n2)n[nH]1 [Example 34, 3-(2-Fluorophenyl)-1-(1,6-dihydro-6-oxopyridazin-3-yl)-4-[2-(2,2,2-trifluoroethyl)aminopyridin-4-yl]-1H-pyrazole]	–	–
1.3	CCNc1cc(-c2cn(-c3ccc(=O)[nH]n3)nc2-c2ccc(F)cc2)ccn1 [Example 27, 4-(2-Ethylaminopyridin-4-yl)-3-(4-fluorophenyl)-1-(1,6-dihydro-6-oxopyridazin-3-yl)-1H-pyrazole]	–	–
8.7	Nc1cc(-c2cn(-c3ccc4nncn4n3)nc2-c2ccc(F)c(F)c2)ccn1 [Example 40, 4-(2-Aminopyridin-4-yl)-3-(3,4-difluorophenyl)-1-([1,2,4]triazolo[4,3-b]pyridazin-6-yl)-1H-pyrazole]	–	–
1.3	CC(=O)Nc1cc(-c2cn(C3=NNC(=O)CC3)nc2-c2ccccc2F)ccn1 [Example 62, 4-(2-Acetylaminopyridin-4-yl)-3-(2-fluorophenyl)-1-(1,4,5,6-tetrahydro-6-oxopyridazin-3-yl)-1H-pyrazole]	–	–
3.4	Cc1cc(-n2cc(-c3ccnc(N)c3)c(-c3ccc(F)cc3)n2)n[nH]c1=O [Example 32, 4-(2-Aminopyridin-4-yl)-3-(4-fluorophenyl)-1-(1,6-dihydro-5-methyl-6-oxopyridazin-3-yl)-1H-pyrazole]	–	–
2.1	CC(=O)Nc1cc(-c2cn(C3=NNC(=O)CC3)nc2-c2ccc(F)cc2)ccn1 [Example 57, 4-(2-Acetylaminopyridin-4-yl)-3-(4-fluorophenyl)-1-(1,4,5,6-tetrahydro-6-oxopyridazin-3-yl)-1H-pyrazole]	–	–
5.9	Nc1cc(-c2cn(-c3ccc(=O)[nH]n3)nc2-c2cccc(C(F)(F)F)c2)ccn1 [Example 25, 4-(2-Aminopyridin-4-yl)-1-(1,6-dihydro-6-oxopyridazin-3-yl)-3-(3-trifluoromethylphenyl)-1H-pyrazole]	–	–
4.9	O=C(Nc1cc(-c2cn(-c3ccc4nncn4n3)nc2-c2ccc(F)cc2)ccn1)C1CCCC1 [Example 45, 4-(2-Cyclopentylcarbonylaminopyridin-4-yl)-3-(4-fluorophenyl)-1-([1,2,4]triazolo[4,3-b]pyridazin-6-yl)-1H-pyrazole]	–	–

The remaining lines, values behind:

SMILES	IC50 (p38MAP kinase) [nM]	IC50 [1] [nM]	other results
COC(=O)Nc1cc(-c2cn(-c3ccc4nncn4n3)nc2-c2ccc(F)cc2)ccn1 [Example 11, 3-(4-Fluorophenyl)-4-(2-methoxycarbonylaminopyridin-4-yl)-1-([1,2,4]triazolo[4,3-b]pyridazin-6-yl)-1H-pyrazole]	6.1	–	–
O=C(Nc1cc(-c2cn(-c3ccc4nncn4n3)nc2-c2ccc(F)cc2)ccn1)C1CC1 [Example 43, 4-(2-Cyclopropylcarbonylaminopyridin-4-yl)-3-(4-fluorophenyl)-1-([1,2,4]triazolo[4,3-b]pyridazin-6-yl)-1H-pyrazole]	–	14	–
CC(=O)Nc1cc(-c2cn(-c3ccc(=O)[nH]n3)nc2-c2ccccc2F)ccn1 [Example 35, 4-(2-Acetylaminopyridin-4-yl)-3-(2-fluorophenyl)-1-(1,6-dihydro-6-oxopyridazin-3-yl)-1H-pyrazole]	–	6	–
Nc1cc(-c2cn(-c3ccc(=O)[nH]n3)nc2-c2ccccc2)ccn1 [Example 20, 4-(2-Aminopyridin-4-yl)-1-(1,6-dihydro-6-oxopyridazin-3-yl)-3-phenyl-1H-pyrazole]	–	–	Rat cytokine induced IL-6 production inhibiting ratio (%) @3 mg/Kg [2]: 78%
CC(=O)Nc1cc(-c2cn(-c3ccc4nncn4n3)nc2-c2ccc(F)cc2)ccn1 [Example 9, 4-(2-Acetylaminopyridin-4-yl)-3-(4-fluorophenyl)-1-([1,2,4]triazolo[4,3-b]pyridazin-6-yl)-1H-pyrazole]	5.4	–	–
Nc1cc(-c2cn(-c3ccc(=O)[nH]n3)nc2-c2ccccc2F)ccn1 [Example 26, 4-(2-Aminopyridin-4-yl)-3-(2-fluorophenyl)l-1(1,6-dihydro-6-oxopyridazin-3-yl)-1H-pyrazole]	–	–	Rat cytokine induced IL-6 production inhibiting ratio (%) @3 mg/Kg [2]: 77%
O=c1ccc(-n2cc(-c3ccnc(NCC(F)(F)F)c3)c(-c3ccc(F)cc3)n2)n[nH]1 [Example 28, 3-(4-fluorophenyl)-1-(1,6-dihydro-6-oxopyridazin-3-yl)-4-[2-(2,2,2-trifluoroethyl)aminopyridin-4-yl]-1H-pyrazole]	–	7	–
Nc1cc(-c2cn(-c3ccc(=O)[nH]n3)nc2-c2cccc(F)c2)ccn1 [Example 22, 4-(2-Aminopyridin-4-yl)-3-(3-fluorophenyl)-1-(1,6-dihydro-6-oxopyridazin-3-yl)-1H-pyrazole]	6.6	–	–
O=c1ccc(-n2cc(-c3ccncc3)c(-c3ccc(F)cc3)n2)n[nH]1 [Example 1, 3-(4-Fluorophenyl)-1-(1,6-dihydro-6-oxopyridazin-3-yl)-4-(pyridin-4-yl)-1H-pyrazole]	8.9	–	–
Nc1cc(-c2cn(-c3cc(N)c(=O)[nH]n3)nc2-c2ccc(F)cc2)ccn1 [Example 4, 1-(5-Amino-1,6-dihydro-6-oxopyridazin-3-yl)-4-(2-aminopyridin-4-yl)-3-(4-fluorophenyl)-1H-pyrazole]	2.5	28	–
O=C1CCC(n2cc(-c3ccnc(NCC(F)(F)F)c3)c(-c3ccccc3F)n2)=NN1 [Example 61, 3-(2-Fluorophenyl)-1-(1,4,5,6-tetrahydro-6-oxopyridazin-3-yl)-4-[2-(2,2,2-trifluoroethyl)aminopyridin-4-yl]-1H-pyrazole]	–	4	–
CC(Nc1cc(-c2cn(-c3ccc4nncn4n3)nc2-c2ccc(F)cc2)ccn1)c1ccccc1 (centres unmarked) [Example 18, 3-(4-Fluorophenyl)-4-[2-(1-phenethylamino)pyridin-4-yl]-1-([1,2,4]triazolo[4,3-b]pyridazin-6-yl)-1H-pyrazole]	3.7	–	–
Nc1cc(-c2cn(C3=NNC(=O)CC3)nc2-c2ccccc2F)ccn1 [Example 55, 4-(2-Aminopyridin-4-yl)-3-(2-fluorophenyl)-1-(1,4,5,6-tetrahydro-6-oxopyridazin-3-yl)-1H-pyrazole]	–	36	–
O=C1CCC(n2cc(-c3ccnc(NC(=O)C4CC4)c3)c(-c3ccccc3F)n2)=NN1 [Example 65, 4-(2-Cyclopropylcarbonylaminopyridin-4-yl)-3-(2-fluorophenyl)-1-(1,4,5,6-tetrahydro-6-oxopyridazin-3-yl)-1H-pyrazole]	–	15	–
